Data taken from publication PMC9653795, “Structure-Guide Design and Optimization of Potential Druglikeness Inhibitors for TGFβRI with the Pyrrolopyrimidine Scaffold” (Pharmaceuticals, 2022).
pIC50: −log10 of the molar value.

Molecular target: T1, TGFβRI (Homo sapiens, UniProt P36897)
T1 construct: gene TGFBR1
T1 sequence (P36897 34-503): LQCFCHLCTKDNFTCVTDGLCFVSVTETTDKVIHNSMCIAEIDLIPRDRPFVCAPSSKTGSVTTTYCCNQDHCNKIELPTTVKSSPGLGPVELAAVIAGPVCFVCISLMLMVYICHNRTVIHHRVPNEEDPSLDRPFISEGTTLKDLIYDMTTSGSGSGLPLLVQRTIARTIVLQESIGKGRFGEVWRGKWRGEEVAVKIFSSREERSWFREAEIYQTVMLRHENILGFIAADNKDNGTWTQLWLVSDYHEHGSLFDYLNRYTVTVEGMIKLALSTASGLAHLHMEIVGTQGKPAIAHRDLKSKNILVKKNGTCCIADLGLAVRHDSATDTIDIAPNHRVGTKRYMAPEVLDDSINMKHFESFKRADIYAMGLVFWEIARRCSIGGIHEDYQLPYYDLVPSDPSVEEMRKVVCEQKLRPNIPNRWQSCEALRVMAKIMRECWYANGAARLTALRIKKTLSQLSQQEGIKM
Assay: ADP-Glo kinase assay
Format: biochemical

CC(C)(O)CNc1nc(Nc2ccncc2F)nc(-c2cccc(C(F)(F)F)n2)n1 [W8, 1-((4-((3-Fluoropyridin-4-yl)Amino)-6-(6-(Trifluoromethyl)Pyridin-2-yl)-1,3,5-Triazin-2-yl)Amino)-2-Methylpropan-2-ol]
pIC50: 4.97
